# According to patent publication US5521319A, “Biotinylation reagent and method of use thereof” (priority 1993, dated 1996):
# How the values were obtained:
# [1] = Solubility of biotinylation reagents at 20° C.; assay type: physicochemical; settings: for Solubility in DMF / Solubility in methanol / Solubility in water / Solubility in dichloromethane: 20° C.
# From the text: [table 1: the next 15 blocks are its lines as printed, fixed-width]
# TSH [2] = test: Immunological determination of TSH using streptavidin magnetic particles and photometric signal measurement
# From the text: (§1) After dialysis against 25 mmol/l potassium phosphate/50 mmol/l sodium chloride pH 7.0, the product is lyophilized.
# TSH [3] = test: Electrochemiluminescence immunological determination of TSH with biotinylated antibody, ruthenium-labelled F(ab')2 and streptavidin magnetic particles
# From the text: as §1
# [4] = cited from earlier work; for Solubility in organic solvents: organic solvents with the exception of DMSO and DMF
# [5] = electrochemiluminescence measurement, vs biotin-NHS
SMILES,Solubility in DMF [1] [µg/mL],Solubility in methanol [1] [µg/mL],Solubility in water ([1]; water) [µg/mL],Solubility in dichloromethane ([1]; dichloromethane) [µg/mL],Signal of biotinylated antibodies compared with spacer-free biotin-NHS (TSH [3]; [5]),Solubility in organic solvents [4],Solubility in water and aqueous buffer solutions [4],further results
O=C(CCCC[C@@H]1SC[C@@H]2NC(=O)N[C@@H]21)NCCCCCC(=O)ON1C(=O)CCC1=O [NHS-LC-biotin],20000,20000,2000,–,–,–,–,–
"O=C(CCCCCCC(=O)ON1C(=O)CCC1=O)NCCOCCOCCNC(=O)CCCC[C@@H]1SC[C@@H]2NC(=O)N[C@@H]21 [biotin-DDS, biotinoyl-amino-3,6-dioxaoctanyl-aminocarbonyl-heptanoic acid-N-hydroxysuccinimide ester]",20000,20000,7000,10000,considerably higher signals,–,–,"Solubility spectrum compared with known reagents ([1]; compared with biotinylation reagents of the state of the art): considerably broader solubility spectrum than known compounds; Solubility in strongly polar (water) and non-polar (dichloromethane) solvents ([1]; water, dichloromethane): good solubility; Photometric signal of labelled antibody compared with biotin-X-NHS (TSH [2]; magnetic particle test with antibody-POD conjugate, vs antibody biotinylated with biotin-X-NHS): significantly higher signals; Degree of biotinylation giving the signal optimum (TSH [2]; photometric measurement): signal optimum at a lower degree of biotinylation; Performance of conjugates produced with the reagent, better than with biotin-NHS (TSH [3]; electrochemiluminescence and other immunological tests with spherical solid phases, vs biotin-NHS): about 3.5 fold; Performance of conjugates produced with the reagent, better than with biotin-X-NHS (TSH [3]; electrochemiluminescence and other immunological tests with spherical solid phases, vs biotin-X-NHS): 1.3 fold; Signal yield of antibodies biotinylated via biotin-DDS, higher than via biotin-X-NHS (TSH [3]; electrochemiluminescence measurement, vs antibodies biotinylated via biotin-X-NHS): 25.7%"
"O=C1N[C@H]2[C@H](CS[C@H]2CCCCC(=O)ON2C(=O)CCC2=O)N1 [biotin-NHS, biotin-N-hydroxysuccinimide esters]",–,–,–,–,–,only moderately soluble,only moderate solubility,–
"O=C(CCCC[C@@H]1SC[C@@H]2NC(=O)N[C@@H]21)NCCCCCC(=O)ON1C(=O)CCC1=O [biotin-X-NHS, biotinoylaminocaproic acidN-hydroxysuccinimide ester]",10000,10000,10000,< 1000,considerably higher signals,only moderately soluble,only moderate solubility,–
O=C(CCCC[C@@H]1SC[C@@H]2NC(=O)N[C@@H]21)NCCCCCC(=O)ON1C(=O)CC(S(=O)(=O)O)C1=O (some centres unmarked) [sulfo-NHS-LC-biotin],–,–,–,–,–,–,–,"Solubility in an aqueous medium ([4]; aqueous medium): good solubility; Solubility in organic solvents in the required concentrations ([4]; organic solvents, in the required concentrations): not soluble"
